These are literature values, as cited in PubChem BioAssay AID1259409 (Chemical Carcinogenesis Research Information System (CCRIS), 2018).

The series deals with rodent chemically induced tumor inhibition, incidence and multiplicity. As to the kind of experiment: CCRIS tumor inhibitor studies. The following applies: Carcinogen: 7,12-DIMETHYLBENZ[A]ANTHRACENE, 57-97-6, Route [Inhibitor]: ORAL, Promoter: NONE USED.

On to `O=[Se](O)O`, for which the “tumour outcome (control, treated, inhibition, significance)” value is, setting by setting: (Dose [Inhibitor]: 0, 0.5 UG/G IN DIET BEGINNING 2 WK PRIOR TO CARCINOGEN DOSE AND CONTINUING FOR 2 WK POST CARCINOGEN DOSE FOLLOWED BY BAS, Species: RAT, Strain/Sex: SPRAGUE-DAWLEY/FEMALE, Target Tissue: Type of Lesion: MAMMARY GLAND: TUMOR, Dose [Carcinogen]: 5 MG/KG) 52%, 32%, 38%, not calculated; (Dose [Inhibitor]: 0, 1 UG/G IN DIET BEGINNING 2 WK PRIOR TO CARCINOGEN DOSE AND CONTINUING FOR 2 WK POST CARCINOGEN DOSE FOLLOWED BY BASAL, Species: RAT, Strain/Sex: SPRAGUE-DAWLEY/FEMALE, Target Tissue: Type of Lesion: MAMMARY GLAND: TUMOR, Dose [Carcinogen]: 5 MG/KG) 52%, 24%, 54%, not calculated; (Dose [Inhibitor]: 0, 2 PPM (AS SELENIUM) IN DIET BEGINNING 2 WK PRIOR TO CARCINOGEN DOSE AND CONTINUING FOR DURATION OF STUDY (STUDY DURAT, Species: RAT, Strain/Sex: SPRAGUE-DAWLEY/FEMALE, Target Tissue: Type of Lesion: MAMMARY GLAND: ADENOCARCINOMA, Dose [Carcinogen]: 10 MG ONCE AT 55 D OF AGE) 88%, 72%, 18%, not significant; (Dose [Inhibitor]: 0, 2 UG/G IN DIET BEGINNING 2 WK PRIOR TO CARCINOGEN DOSE AND CONTINUING FOR 2 WK POST CARCINOGEN DOSE FOLLOWED BY BASAL, Species: RAT, Strain/Sex: SPRAGUE-DAWLEY/FEMALE, Target Tissue: Type of Lesion: MAMMARY GLAND: TUMOR, Dose [Carcinogen]: 5 MG/KG) 52%, 14%, 73%, not calculated; (Dose [Inhibitor]: 0, 2.5 MG/KG IN DIET TO ANIMALS ON VITAMIN E ADEQUATE DIETS (50 MG/KG) (STUDY DURATION: 20 WK), Species: RAT, Strain/Sex: SPRAGUE-DAWLEY/FEMALE, Target Tissue: Type of Lesion: MAMMARY GLAND: TUMOR, Dose [Carcinogen]: 5 MG ONCE AT 50 D OF AGE) 19/25 (76%), 10/25 (40%), 47%, not calculated; (Dose [Inhibitor]: 0, 2.5 MG/KG IN DIET TO ANIMALS ON VITAMIN E DEFICIENT DIETS (10 MG/KG) (STUDY DURATION: 20 WK), Species: RAT, Strain/Sex: SPRAGUE-DAWLEY/FEMALE, Target Tissue: Type of Lesion: MAMMARY GLAND: TUMOR, Dose [Carcinogen]: 5 MG ONCE AT 50 D AGE) 21/25 (84%), 17/25 (68%), 19%, not calculated. Moreover, the “tumour outcome (control, treated, inhibition, significance)” value (Dose [Inhibitor]: 0, 3 PPM (AS SELENIUM) IN DIET BEGINNING 2 WK PRIOR TO CARCINOGEN DOSE AND CONTINUING FOR DURATION OF STUDY (STUDY DURAT, Species: RAT, Strain/Sex: SPRAGUE-DAWLEY/FEMALE, Target Tissue: Type of Lesion: MAMMARY GLAND: ADENOCARCINOMA, Dose [Carcinogen]: 10 MG ONCE AT 55 D OF AGE) is reported as 88%, 52%, 41%, p<0.05; the “tumour outcome (control, treated, inhibition, significance)” value (Dose [Inhibitor]: 0, 3 UG/ML IN DRINKING WATER FROM 40-90 D OF AGE THEN 0, 2 UG/ML FROM 90-180 D OF AGE AND 0, 1 UG/ML FROM 180-240 D OF A, Dose [Inhibitor]: 0, 3 UG/ML IN DRINKING WATER FROM 40-90 D OF AGE THEN 0, 2 UG/ML FROM 90-180 D OF AGE AND 0, 1 UG/ML FROM 180-240 D OF A, Species: RAT, Strain/Sex: SPRAGUE DAWLEY/FEMALE, Target Tissue: Type of Lesion: MAMMARY GLAND: ADENOCARCINOMA, FIBROADENOMA, Dose [Carcinogen]: 5 MG IN 0.2 ML SESAME OIL 1/2 D FOR 12 D BEGINNING AT 50 D OF AGE) is 100%, 52%, 48%, p<0.001; the “tumour outcome (control, treated, inhibition, significance)” value (Dose [Inhibitor]: 0, 4 PPM IN DRINKING WATER BEGINNING 2 WK PRIOR TO CARCINOGEN DOSE AND CONTINUING FOR 1 WK POST CARCINOGEN DOSE (STUDY D, Species: RAT, Strain/Sex: SPRAGUE-DAWLEY/FEMALE, Target Tissue: Type of Lesion: MAMMARY GLAND: TUMOR, Dose [Carcinogen]: 10 MG IN 1 ML OLIVE OIL ONCE AT 7 WK OF AGE) is recorded as 19/21 (91%), 19/21 (91%), 0%; the “tumour outcome (control, treated, inhibition, significance)” value (Dose [Inhibitor]: 0, 4 UG/G IN DIET BEGINNING 2 WK PRIOR TO CARCINOGEN DOSE AND CONTINUING FOR 2 WK POST CARCINOGEN DOSE FOLLOWED BY BASAL, Species: RAT, Strain/Sex: SPRAGUE-DAWLEY/FEMALE, Target Tissue: Type of Lesion: MAMMARY GLAND: TUMOR, Dose [Carcinogen]: 5 MG/KG) is reported as 52%, 10%, 81%, not calculated; the “tumour outcome (control, treated, inhibition, significance)” value (Dose [Inhibitor]: 0, 4 UG/G IN DIET BEGINNING 2 WK PRIOR TO CARCINOGEN DOSE AND CONTINUING FOR DURATION OF STUDY (STUDY DURATION: 43 WK), Species: RAT, Strain/Sex: SPRAGUE-DAWLEY/FEMALE, Target Tissue: Type of Lesion: MAMMARY GLAND: TUMOR, Dose [Carcinogen]: 5 MG/KG) is reported as 52%, 5%, 90%, not calculated; the “tumour outcome (control, treated, inhibition, significance)” value (Dose [Inhibitor]: 0.2, 2 PPM IN DIET BEGINNING 3 D PRIOR TO CARCINOGEN DOSE AND CONTINUING FOR 8 MO (STUDY DURATION: 8 MO), Species: MOUSE, Strain/Sex: BALB/FEMALE, Target Tissue: Type of Lesion: MAMMARY GLAND: ADENOCARCINOMA, Dose [Carcinogen]: 1 MG/WK FOR 6 WK) is given as 12/31 (39%), 4/34 (12%), 69%, p<0.025. Also, the “tumour outcome (control, treated, inhibition, significance)” value (Dose [Inhibitor]: 0.5 PPM IN 5% CORN OIL DIET DAILY STARTING 29 D BEFORE CARCINOGEN TREATMENT AND CONTINUING FOR DURATION OF STUDY (STUDY, Species: RAT, Strain/Sex: SPRAGUE-DAWLEY/FEMALE, Target Tissue: Type of Lesion: MAMMARY GLAND: ADENOCARCINOMA, Dose [Carcinogen]: 5 MG IN CORN OIL ONCE AT 50 D OF AGE) is reported as 12/30 (40%), 11/30 (37%), 8%, not significant; the “tumour outcome (control, treated, inhibition, significance)” value (Dose [Inhibitor]: 0.5 PPM IN 25% CORN OIL DIET DAILY STARTING 29 D BEFORE CARCINOGEN TREATMENT AND CONTINUING FOR DURATION OF STUDY (STUDY, Species: RAT, Strain/Sex: SPRAGUE-DAWLEY/FEMALE, Target Tissue: Type of Lesion: MAMMARY GLAND: ADENOCARCINOMA, Dose [Carcinogen]: 5 MG IN CORN OIL ONCE AT 50 D OF AGE) is given as 21/30 (70%), 20/29 (69%), 1%, not significant; the “tumour outcome (control, treated, inhibition, significance)” value (Dose [Inhibitor]: 0.5 PPM IN DIET DAILY STARTING 1 WK PRIOR TO CARCINOGEN TREATMENT AND CONTINUING FOR DURATION OF STUDY (STUDY DURATION:, Species: MOUSE, Strain/Sex: BD2F1/FEMALE, Target Tissue: Type of Lesion: MAMMARY GLAND: TUMOR, Dose [Carcinogen]: 1 MG IN 0.2 ML COTTONSEED OIL 1/WK FOR 6 WK STARTING AT 8 WK OF AGE) is given as 18/32 (56%), 10/33 (30%), 46%, not calculated.
